In US8202904B2, “α-cyano-4-fluoro-3-phenoxybenzyl meta-halo pyrethrate, a process for preparing the same and the uses thereof” (East China Normal University, priority 2007, dated 2012):
Converted amounts (≈) assume the structure as drawn. Like-named read-outs stand apart in the source and are kept apart here.

Experiments:
[1] = system: Culex pipiens pallens fourth instar wiggler; experiment: Killing effect on wiggler, WHO immersing method, LC50; type: in vivo; conditions: for LC50: Culex pipiens pallens fourth instar wiggler, immersing method, mortality after 24 hours, 26±1° C.; for Relative toxicity: from wiggler LC50, Cypermethrin = 100
Experimental: The following pyrethrates were tested as representatives according to the method recommended by the World Health Organization (WHO) (Zongbing ZHANG, the assay of toxicity of insecticides, the Science Press, 1988), the commonly used testing breed, Culex pipiens pallens fourth instar wiggler is used as a subject for biological assay, test temperature: 26±1° C., humidity: 70±10%; immersing method: a solution of a certain amount the compound to be tested in acetone was mixed evenly with pure water in the gradually decreasing concentration of 500, 250, 100, 50, 25, 12.5, 6.25, 3.125, 1, 0.5, 0.25, 0.1, 0.05, 0.025, 0.01, 0.005, 0.0025, 0.0001 mg/L, and the mortality of wiggler after 24 hours was calculated and LC50 was calculated to preliminarily evaluate the insecticidal activity. The results were shown in Table I. Compound 1-5 are representative examples of the compound of formula (I) of the present invention: the compounds involved in preparation Example 1-5 were prepared;
At the same time, their relative toxicities were compared with those of Cypermethrin, and Deltamethrin.

[2] = Stability test, ultraviolet lamp irradiation, gas chromatography analysis; type: physicochemical; conditions: 0.15 mmol in 50 ml cyclohexane, 500 W ultraviolet lamp, 30 min
Experimental: 0.15 mmol of the compound of Preparation Example 2 (cis-α-cyano-3-phenoxy-4-fluoro-benzyl-2,2-dimethyl-3-(2-chlorovinyl)cyclopropane carboxylate) and 0.15 mmol of the corresponding dichloride compound (cis-α-cyano-3-phenoxy-4-fluoro-benzyl-2,2-dimethyl-3-(2,2-dichlorovinyl)cyclopropane carboxylate) were added to two vessels separately, to which 50 ml of cyclohexane were added separately. They were irradiated by a 500 W ultraviolet lamp for 30 min respectively. Then to each of the vessels were added 0.15 mmol of n-hexane as an internal standard for gas chromatography analysis. […] The photodegradation rate of the former is 1.9 times of that of the latter. That is to say, if the same amounts were used, the residue of the former in the environment is lower than that of the latter.

| SMILES | LC50 [1] [µg/mL] | Relative toxicity [1] | LC50 ([1]; read-out: LC50) [µg/mL] | degraded by light [2] [%] |
| --- | --- | --- | --- | --- |
| CC1(C)C(C=CCl)C1C(=O)OC(C#N)c1ccc(F)c(Oc2ccccc2)c1 (mixture of isomers) [Compound 1, cis/trans-α-cyano-3-phenoxy-4-fluoro-benzyl-2,2-dimethyl-3-(E/Z-2-chlorovinyl)cyclopropane carboxylate] | 0.00055 | 1927 | – | – |
| CC1(C)[C@H](/C=C/F)[C@@H]1C(=O)OC(C#N)c1ccc(F)c(Oc2ccccc2)c1 (relative stereo) [Compound 5, cis-α-cyano-3-phenoxy-4-fluoro-benzyl-2,2-dimethyl-3-(E-2-fluorovinyl)cyclopropane carboxylate] | – | 1740 | 0.00061 (≈ 0.00159 µM) | – |
| CC1(C)[C@H](/C=C/Cl)[C@@H]1C(=O)OCc1c(F)c(F)cc(F)c1F (relative stereo) [Compound 6, cis-2,3,5,6-tetrafluoro-4-benzyl-3-(E-2-chlorovinyl)-2,2-dimethylcyclopropane carboxylate] | 0.4810 (≈ 1.43 µM) | 2 | – | – |
| Cc1c(F)c(F)c(COC(=O)[C@H]2[C@@H](/C=C/Cl)C2(C)C)c(F)c1F (relative stereo) [Compound 7, cis-2,3,5,6-tetrafluoro-4-methyl benzyl-3-(E-2-chlorovinyl)-2,2-dimethylcyclopropane carboxylate] | 0.0741 (≈ 0.211 µM) | 14 | – | – |
| CC1(C)[C@H](/C=C/Cl)[C@@H]1C(=O)OCc1c(F)c(F)c(F)c(F)c1F (relative stereo) [Compound 8, cis-pentafluorobenzyl-3-(E-2-chlorovinyl)-2,2-dimethyl cyclopropane carboxylate] | 0.0801 (≈ 0.226 µM) | 13 | – | – |
| Cc1c(F)c(F)c(COC(=O)[C@H]2[C@H](C=CCl)C2(C)C)c(F)c1F (relative stereo) [Compound 10, trans-2,3,5,6-tetrafluoro-4-methylbenzyl-3-(2-chlorovinyl)-2,2-dimethylcyclopropane carboxylate] | – | 18 | 0.0578 (≈ 0.165 µM) | – |
| CC1(C)[C@@H](C=CCl)[C@@H]1C(=O)OCc1c(F)c(F)c(F)c(F)c1F (relative stereo) [Compound 11, trans-pentafluorobenzyl-3-(2-chlorovinyl)-2,2-dimethyl cyclopropane carboxylate] | 0.2041 (≈ 0.575 µM) | 5 | – | – |
| CC1(C)[C@H](C=CBr)[C@@H]1C(=O)OC(C#N)c1cccc(Oc2ccccc2)c1 (relative stereo) [Compound 12, cis-α-cyano-3-phenoxybenzyl-2,2-dimethyl-3-(2-bromovinyl)cyclopropane carboxylate] | – | 98 | 0.0108 (≈ 0.0253 µM) | – |
| CC1(C)[C@@H](C=CCl)[C@@H]1C(=O)OC(C#N)c1cccc(Oc2ccccc2)c1 (relative stereo) [Compound 13, trans-α-cyano-3-phenoxybenzyl-2,2-dimethyl-3-(2-chlorovinyl)cyclopropane carboxylate] | – | 20 | 0.0527 (≈ 0.138 µM) | – |
| CC1(C)[C@H](C=C(Cl)Cl)[C@@H]1C(=O)OC(C#N)c1ccc(F)c(Oc2ccccc2)c1 (relative stereo) [corresponding dichloride compound, cis-α-cyano-3-phenoxy-4-fluoro-benzyl-2,2-dimethyl-3-(2,2-dichlorovinyl)cyclopropane carboxylate, reference compound] | – | – | – | 14 |
| CC1(C)[C@H](C=CBr)[C@H]1C(=O)OC(C#N)c1ccc(F)c(Oc2ccccc2)c1 (stereo partly drawn) [Compound 4, (1R)-Trans-α-cyano-3-phenoxy-4-fluoro-benzyl-2,2-dimethyl-3-(2-bromovinyl)cyclopropane carboxylate] | – | 393 | 0.0027 (≈ 0.00608 µM) | – |
| CC1(C)C(C=C(Cl)Cl)C1C(=O)OC(C#N)c1cccc(Oc2ccccc2)c1 (stereo not shown) [Cypermethrin] | – | 100 | 0.0106 (≈ 0.0255 µM) | – |
| CC1(C)[C@H](C(=O)O[C@H](C#N)c2cccc(Oc3ccccc3)c2)[C@@H]1C=C(Br)Br [Deltamethrin] | – | 883 | 0.0012 (≈ 0.00238 µM) | – |
